Results taken from patent US20250127695A1, “Use of Branched Medium-Chain Glycerol Ethers as Active Antidandruff Ingredients” (Henkel AG & Co. KGaA, priority 2022, published 2025).

Legend:
[1] = test system: barrier markers (transglutaminase1, filaggrin, decorin, involucrin, and loricrin); assay: gene expression of barrier markers in in vitro tests on artificial skin models; type: cell-based; details: various concentrations, FIG. 2
Description: The gene expression of all investigated barrier markers (transglutaminase1, filaggrin, decorin, involucrin, and loricrin) was reduced by the treatment.

Malassezia furfur = assay: quantitative suspension test of Malassezia furfur; type: cell-based; details: incubation ≤60 min at 37° C. in a buffer solution, FIG. 1
Procedure: The efficacy against dandruff was investigated by is of a suspension test. Various formulations were incubated for a certain time (≤60 min) together with the yeast Malassezia furfur, which was present in cell counts of 10^5-10^6 CFU/mL, at 37° C. in a buffer solution.
After incubation, the cell count of the yeast was determined by is of a culture method (growth on Sabouraud Agar). The difference between this value and the respective initial value is a measure of the microbicidal efficacy of the respective anti-dandruff compound.
One of the causes of dandruff formation is the excessive growth of various microorganisms on the scalp. Yeasts of the genus Malassezia play a particularly important role here. The growth-inhibiting effect of various anti-dandruff compounds in this experiment therefore indicates anti-dandruff efficacy (FIG. 1).

Row | SMILES | gene expression of barrier markers (transglutaminase1, filaggrin, decorin, involucrin, loricrin) [1] | microbicidal efficacy against Malassezia (cell count of the yeast after incubation vs initial value) (Malassezia furfur) | release of interleukin 8 (inflammatory marker) (interleukin 8)
1 | CCCCCCC(C)OCC(O)CO (stereo not shown) [methylheptyl glycerin] | did not lead to a significant decrease in gene expression | killing effect on the Malassezia fungus | 
2 | Cc1cc(CC(C)CC(C)(C)C)n(O)c(=O)c1.NCCO (stereo not shown) [Octopirox, Piroctone Olamine] | reduced |  | does not negatively influence the release of inflammatory markers
